Measured values reported in article PMC9256669, “Monomethyl auristatin antibody and peptide drug conjugates for trimodal cancer chemo-radio-immunotherapy” (Nature Communications, 2022).

Assays:
B16 tumors = system: B16 tumors; set-up: species or system RAG1 KO mice; details: mouse, in vivo
Method: FSC-A FSC-H SCC-H Live Dead-Blue
Representative flow cytometry plots to gate immune cells quantitated in Fig. 4a, b, 4d &
Supplementary Fig. 10b, c. b) Quantification of tumor immune cell identified by flow cytometry on
Tumors harvested on day 19 and immune cells characterized by flow cytometry. c) Tumor
granzyme B expression. Characterized CD8+ T-cells were further gated for granzyme-B staining
(Clone:GB11). In addition, RNA levelsof tumor granzyme-B was analyzed by qPCR. For
Mice implanted with tumor
Log-rank (Mantel-Cox) test.
Source data are provided in Source Data file. […]

MOC2 tumors = assay: Orthotopic syngeneic tongue tumor therapy, tumor volumes; format: in vivo, C57BL/6 mice; details: single 2.5 nmole i.v. injection
Text: Orthotopic tongue xenograft tumors were established in 6-week-old NOD SCID mice by injecting 150,000 CAL27 parental (WT) or PIK3CA H1047R-expressing cells. […] On the last day of tumor xenograft measurements, mice were euthanized, tongues resected, imaged, and fixed. […] IR was delivered as 2 parallel opposed fields.
6-week-old C57BL/6 female mice were implanted with 50,000 MOC2 cells into the tongue. […] Five days after treatment, tumors were isolated, minced, and re-suspended in FBS-free DMEM media supplemented with components of MACs tumor dissociation kit. Tissues were incubated for 15 min at 37 °C and mechanically digested using the gentle MACs Octo Dissociator. Digested samples were then passed through a 100-µm strainer to acquire a single-cell. For viability staining, cells were washed in PBS and stained with Cell-ID Cisplatin (DVS Sciences) to a final concentration of 5 μM for 5 min at room temperature. Cisplatin was quenched when cells were washed and stained with the antibody cocktail. Antibodies were prepared in Maxpar cell staining buffer (PBS with 2 mM EDTA, 0.1% BSA, 0.05% NaN3) and incubated with cells for 15 min at room temperature. […] Antibodies (clone in parenthesis) used for CyTOF included B220 (RA3-6B2), CD117(2B8), CD11c (N418), CD25 (3C7), CD4 (RM4-5), CD45 (30-F11), CD8a (53-6.7), MHC-II (M5/114.15.2), NKP46 (29A1.4), TCRb (H57-597) from Fluidigm. […]

Substance	tumor control in RAG1 KO mice (B16 tumors)	tumor growth (MOC2 tumors)
cyclo(RGD)fc-MC-HN-peg8-e9-oPLGC(Me)AG-r9-c-(MC-VC-PABC-MMAE)-CONH2 [ACPP-MMAE]	did not appreciably increase tumor control in RAG1 KO mice compared to IR alone	–
CDX3379-MMAE: anti-HER3 antibody CDX3379 with 4 MMAE per antibody via MC-VC-PABC linker, labeled with Cy5	–	modest tumor growth delay
